Test results: patent US12649750B2, “Macrocyclic compounds, compositions, and methods of using thereof” (Sionna Therapeutics Inc., priority 2022, dated 2026)

Tests used:
CFTR = target: T1, CFTR (Homo sapiens, UniProt P13569, DEL508-508); test: TECC24 AUC fold over DMSO @10 μM, CFTR-mediated transepithelial chloride transport in CF-HBE cells; type: cell-based; conditions: test agent AUC divided by DMSO vehicle AUC, primary CF-HBE cells, ΔF508 homozygous donor, 48 hours incubation
T1 construct: Primary human bronchial epithelial cells from a ΔF508 homozygous CF donor; host or cells: primary human bronchial epithelial cells (CF-HBE), ΔF508 homozygous donor
How it was run: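 Primary ΔF508-homozygous CF bronchial epithelial cells on inserts were incubated 48 h at 36.5 °C with compound in IL-13-containing medium. VT and TEER were then recorded in current-clamp mode (pH 7.4 HEPES bath) with benzamil 10 μM, forskolin 10 μM, then CFTR inhibitor-172 20 μM. The IEQ AUC between forskolin and inhibitor was divided by vehicle AUC.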

NBD1 = target: T2, NBD1 (Homo sapiens, UniProt P13569); test: Aggregation analysis using differential static light scattering (DSLS), thermal stability of NBD1 (ΔTagg); type: binding; conditions: ΔTagg versus DMSO control, NBD1 0.2 mg/ml
T2 construct: Purified recombinant NBD1 was produced using previously described methods; made in house
How it was run: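 Purified recombinant NBD1 at 0.2 mg/ml in Tris buffer pH7.6 with 2 mM ATP, 5 mM MgCl2, 2 mM DTT and 1% glycerol was mixed with DMSO-dissolved compounds under mineral oil. Plates were heated at 1° C. per minute to 70° C., light scattering imaged every 0.5° C.; Tagg from curve inflection, minus DMSO-control mean.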

T1 sequence (P13569 with tags, fused parts or gaps DEL508-508): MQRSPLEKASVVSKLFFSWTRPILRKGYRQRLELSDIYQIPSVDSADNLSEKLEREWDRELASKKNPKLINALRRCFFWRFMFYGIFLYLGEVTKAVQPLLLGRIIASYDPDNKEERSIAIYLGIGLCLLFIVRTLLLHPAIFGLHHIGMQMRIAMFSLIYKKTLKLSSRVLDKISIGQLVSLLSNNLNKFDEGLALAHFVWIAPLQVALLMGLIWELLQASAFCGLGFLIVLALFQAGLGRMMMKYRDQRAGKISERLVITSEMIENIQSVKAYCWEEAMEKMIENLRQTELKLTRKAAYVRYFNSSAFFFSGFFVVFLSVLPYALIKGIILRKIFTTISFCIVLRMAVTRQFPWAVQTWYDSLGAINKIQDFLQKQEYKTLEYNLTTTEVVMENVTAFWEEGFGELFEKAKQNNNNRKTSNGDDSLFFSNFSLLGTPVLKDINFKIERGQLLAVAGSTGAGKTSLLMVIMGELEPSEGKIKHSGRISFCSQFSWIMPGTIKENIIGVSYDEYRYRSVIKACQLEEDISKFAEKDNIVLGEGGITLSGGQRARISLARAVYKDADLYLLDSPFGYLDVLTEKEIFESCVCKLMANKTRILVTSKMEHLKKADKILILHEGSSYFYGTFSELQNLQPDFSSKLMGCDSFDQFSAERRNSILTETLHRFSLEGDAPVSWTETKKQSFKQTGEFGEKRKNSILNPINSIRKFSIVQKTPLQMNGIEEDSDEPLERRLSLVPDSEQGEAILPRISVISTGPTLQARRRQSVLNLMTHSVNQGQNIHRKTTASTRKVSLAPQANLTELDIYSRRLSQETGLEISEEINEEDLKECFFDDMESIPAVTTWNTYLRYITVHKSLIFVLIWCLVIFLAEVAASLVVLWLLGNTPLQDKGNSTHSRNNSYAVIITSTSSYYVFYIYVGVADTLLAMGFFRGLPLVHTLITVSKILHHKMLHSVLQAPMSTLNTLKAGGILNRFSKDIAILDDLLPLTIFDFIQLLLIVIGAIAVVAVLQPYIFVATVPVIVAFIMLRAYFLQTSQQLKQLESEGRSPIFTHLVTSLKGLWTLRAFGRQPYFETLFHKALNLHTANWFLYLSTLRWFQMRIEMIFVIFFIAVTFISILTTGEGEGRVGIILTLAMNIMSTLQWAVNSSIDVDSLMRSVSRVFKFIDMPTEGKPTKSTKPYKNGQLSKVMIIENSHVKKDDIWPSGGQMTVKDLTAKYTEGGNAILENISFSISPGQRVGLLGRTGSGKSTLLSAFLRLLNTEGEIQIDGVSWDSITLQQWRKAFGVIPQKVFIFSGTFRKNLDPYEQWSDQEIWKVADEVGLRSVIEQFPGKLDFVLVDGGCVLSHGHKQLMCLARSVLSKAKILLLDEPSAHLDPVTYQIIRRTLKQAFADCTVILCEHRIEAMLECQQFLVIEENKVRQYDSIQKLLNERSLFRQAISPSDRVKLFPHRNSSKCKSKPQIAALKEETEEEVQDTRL
T2 sequence (P13569 423-646 limits assumed): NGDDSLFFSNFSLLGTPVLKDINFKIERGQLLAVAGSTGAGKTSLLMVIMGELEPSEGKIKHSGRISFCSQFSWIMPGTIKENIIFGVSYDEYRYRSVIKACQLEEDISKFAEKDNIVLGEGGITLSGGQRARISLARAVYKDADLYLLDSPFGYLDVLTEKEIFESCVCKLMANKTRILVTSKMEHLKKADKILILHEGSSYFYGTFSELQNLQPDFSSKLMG

| Structure (SMILES) | TECC (AUC, 10 μM) (CFTR) | DSLS 3D (100 μM ΔT) (NBD1) |
| --- | --- | --- |
| C[C@@H](Cc1cccc([C@@]2(C)CCCC(C)(C)CS(=O)(=O)CCc3c(c(F)cc4[nH]ccc34)Sc3ccnc(c3)-c3nc2nn3C)c1)C(=O)O [Compound 253, (2S)-3-[3-[(6R)-22-fluoro-3,6,10,10-tetramethyl-12,12-dioxo-12λ6,24-dithia-3,4,19,28,30-pentazapentacyclo[23.3.1.12,5.015,23.016,20]triaconta-1(29),2(30),4,15,17,20,22,25,27-nonaen-6-yl]phenyl]-2-methyl-propanoic Acid] | B (a value between 12-20 is marked “B”) | C (a value greater than 10 °C and less than or equal to 25 °C is marked “C”) |
| C[C@@H](Cc1cccc([C@@]2(C)CCCC(C)(C)CS(=O)(=O)CCc3c(c(F)cc4[nH]ccc34)Oc3cnnc(c3)-c3nc2nn3C)c1)C(=O)O [Compound 256, (2S)-3-[3-[(6R)-22-Fluoro-3,6,10,10-tetramethyl-12,12-dioxo-24-oxa-12λ6-thia-3,4,19,27,28,30-hexazapentacyclo[23.3.1.12,5.015,23.016,20]triaconta-1(29),2(30),4,15,17,20,22,25,27-nonaen-6-yl]phenyl]-2-methyl-propanoic Acid] | C (a value between 20 and 80 is marked “C”) | C (a value greater than 10 °C and less than or equal to 25 °C is marked “C”) |
| Cn1nc2nc1-c1cc(ccn1)Oc1c(F)c(F)c3[nH]ccc3c1CCS(=O)(=O)CC(C)(C)CCC[C@]2(C)c1cccc(CC(=O)O)c1 [Compound 257, 2-[3-[(6R)-21,22-difluoro-3,6,10,10-tetramethyl-12,12-dioxo-24-oxa-12λ6-thia-3,4,19,28,30-pentazapentacyclo[23.3.1.12,5.015,23.016,20]triaconta-1(29),2(30),4,15,17,20,22,25,27-nonaen-6-yl]phenyl]acetic Acid] | B (a value between 12-20 is marked “B”) | C (a value greater than 10 °C and less than or equal to 25 °C is marked “C”) |
| Cn1nc2nc1-c1cc(ccn1)Oc1c(F)c(F)c3[nH]ccc3c1CCS(=O)(=O)CC(C)(C)CCC[C@]2(C)c1cccc(CCO)c1 [Compound 258, 2-[3-[(6R)-21,22-Difluoro-3,6,10,10-tetramethyl-12,12-dioxo-24-oxa-12λ6-thia-3,4,19,28,30-pentazapentacyclo[23.3.1.12,5.015,23.016,20]triaconta-1(29),2(30),4,15,17,20,22,25,27-nonaen-6-yl]phenyl]ethanol] | C (a value between 20 and 80 is marked “C”) | C (a value greater than 10 °C and less than or equal to 25 °C is marked “C”) |
| C[C@@H](Cc1cccc([C@@]2(C)CCCC(C)(C)CS(=O)(=O)CCc3c(c(F)c(F)c4[nH]ccc34)Oc3ccnc(c3)-c3nc2nn3C)c1)C(=O)O [Compound 262, (2S)-3-[3-[(6R)-21,22-Difluoro-3,6,10,10-tetramethyl-12,12-dioxo-24-oxa-12λ6-thia-3,4,19,28,30-pentazapentacyclo[23.3.1.12,5.015,23.016,20]triaconta-1(29),2(30),4,15,17,20,22,25,27-nonaen-6-yl]phenyl]-2-methyl-propanoic Acid] | C (a value between 20 and 80 is marked “C”) | C (a value greater than 10 °C and less than or equal to 25 °C is marked “C”) |
| C[C@@H](O)Cc1cccc([C@@]2(C)CCCC(C)(C)CS(=O)(=O)CCc3c(c(F)cc4[nH]ccc34)Sc3ccc(F)c(c3)-c3nc2nn3C)c1 [Compound 263, (2R)-1-[3-[(6R)-22,28-difluoro-3,6,10,10-tetramethyl-12,12-dioxo-12λ6,24-dithia-3,4,19,30-tetrazapentacyclo[23.3.1.12,5.015,23.016,20]triaconta-1(29),2(30),4,15,17,20,22,25,27-nonaen-6-yl]phenyl]propan-2-ol] | C (a value between 20 and 80 is marked “C”) | B (a value above 5 °C and less than or equal to 10 °C is marked “B”) |
| COC(=O)[C@H](C)Cc1cccc([C@@]2(C)CCCC(C)(C)CS(=O)(=O)CCc3c(c(F)cc4[nH]ccc34)Oc3cnnc(c3)-c3nc2nn3C)c1 [Compound 265, Methyl (2R)-3-[3-[(6R)-22-fluoro-3,6,10,10-tetramethyl-12,12-dioxo-24-oxa-12λ6-thia-3,4,19,27,28,30-hexazapentacyclo[23.3.1.12,5.015,23.016,20]triaconta-1(29),2(30),4,15,17,20,22,25,27-nonaen-6-yl]phenyl]-2-methyl-propanoate] | C (a value between 20 and 80 is marked “C”) | B (a value above 5 °C and less than or equal to 10 °C is marked “B”) |
| C[C@@H](Cc1cccc([C@@]2(C)CCCC(C)(C)CS(=O)(=O)CCc3c(c(F)c(F)c4[nH]ccc34)[S+]([O-])c3ccnc(c3)-c3nc2nn3C)c1)C(=O)O (stereo partly drawn) [Compound 267, (2S)-3-[3-[(6R)-21,22-Difluoro-3,6,10,10-tetramethyl-12,12,24-trioxo-12λ6,24λ4-dithia-3,4,19,28,30-pentazapentacyclo[23.3.1.12,5.015,23.016,20]triaconta-1(29),2(30),4,15,17,20,22,25,27-nonaen-6-yl]phenyl]-2-methyl-propanoic Acid] | C (a value between 20 and 80 is marked “C”) | C (a value greater than 10 °C and less than or equal to 25 °C is marked “C”) |
| C[C@@H](Cc1cccc([C@@]2(C)CCCC(C)(C)CS(=O)(=O)CCc3c(c(F)c(F)c4[nH]ccc34)Sc3ccnc(c3)-c3nc2nn3C)c1)C(=O)O [Compound 268, (2S)-3-[3-[(6R)-21,22-Difluoro-3,6,10,10-tetramethyl-12,12-dioxo-12λ6,24-dithia-3,4,19,28,30-pentazapentacyclo[23.3.1.12,5.015,23.016,20]triaconta-1(29),2(30),4,15,17,20,22,25,27-nonaen-6-yl]phenyl]-2-methyl-propanoic Acid] | B (a value between 12-20 is marked “B”) | C (a value greater than 10 °C and less than or equal to 25 °C is marked “C”) |
| C[C@H](Cc1cccc([C@@]2(C)CCCC(C)(C)CS(=O)(=O)CCc3c(c(F)c(F)c4[nH]ccc34)Sc3ccnc(c3)-c3nc2nn3C)c1)C(=O)O [Compound 270, (2R)-3-[3-[(6R)-21,22-difluoro-3,6,10,10-tetramethyl-12,12-dioxo-12λ6,24-dithia-3,4,19,28,30-pentazapentacyclo[23.3.1.12,5.015,23.016,20]triaconta-1(29),2(30),4,15,17,20,22,25,27-nonaen-6-yl]phenyl]-2-methyl-propanoic Acid] | B (a value between 12-20 is marked “B”) | C (a value greater than 10 °C and less than or equal to 25 °C is marked “C”) |
| Cn1nc2nc1-c1cc(ccn1)Sc1c(F)cc3[nH]ccc3c1CCS(=O)(=O)CC(C)(C)CCC[C@]2(C)c1cccc(CC2(C(=O)O)CC2)c1 [Compound 272, 1-[[3-[(6R)-22-Fluoro-3,6,10,10-tetramethyl-12,12-dioxo-12λ6,24-dithia-3,4,19,28,30-pentazapentacyclo[23.3.1.12,5.015,23.016,20]triaconta-1(29),2(30),4,15,17,20,22,25,27-nonaen-6-yl]phenyl]methyl]cyclopropanecarboxylic Acid] | C (a value between 20 and 80 is marked “C”) | C (a value greater than 10 °C and less than or equal to 25 °C is marked “C”) |
| Cn1nc2nc1-c1cc(ccn1)Sc1c(F)cc3[nH]ccc3c1CCS(=O)(=O)CC(C)(C)CCC[C@]2(C)c1cccc(CC(C)(C)C(=O)O)c1 [Compound 273, 3-[3-[(6R)-22-Fluoro-3,6,10,10-tetramethyl-12,12-dioxo-12λ6,24-dithia-3,4,19,28,30-pentazapentacyclo[23.3.1.12,5.015,23.016,20]triaconta-1(29),2(30),4,15,17,20,22,25,27-nonaen-6-yl]phenyl]-2,2-dimethyl-propanoic Acid] | B (a value between 12-20 is marked “B”) | C (a value greater than 10 °C and less than or equal to 25 °C is marked “C”) |
| Cn1nc2nc1-c1cc(ccn1)Sc1c(F)c(F)c3[nH]ccc3c1CCS(=O)(=O)CC(C)(C)CCC[C@]2(C)c1cccc(CC(C)(C)C(=O)O)c1 [Compound 275, 3-[3-[(6R)-21,22-Difluoro-3,6,10,10-tetramethyl-12,12-dioxo-12λ6,24-dithia-3,4,19,28,30-pentazapentacyclo[23.3.1.12,5.015,23.016,20]triaconta-1(29),2(30),4,15,17,20,22,25,27-nonaen-6-yl]phenyl]-2,2-dimethyl-propanoic Acid] | C (a value between 20 and 80 is marked “C”) | C (a value greater than 10 °C and less than or equal to 25 °C is marked “C”) |
| Cn1nc2nc1-c1cc(ccn1)Sc1c(F)c(F)c3[nH]ccc3c1CCS(=O)(=O)CC(C)(C)CCC[C@]2(C)c1cccc(CCC(=O)O)c1 [Compound 276, 3-[3-[(6R)-21,22-difluoro-3,6,10,10-tetramethyl-12,12-dioxo-12λ6,24-dithia-3,4,19,28,30-pentazapentacyclo[23.3.1.12,5.015,23.016,20]triaconta-1(29),2(30),4,15,17,20,22,25,27-nonaen-6-yl]phenyl]propanoic Acid] | B (a value between 12-20 is marked “B”) | C (a value greater than 10 °C and less than or equal to 25 °C is marked “C”) |
